According to ChEMBL document CHEMBL2375319, “Design, synthesis and structure-activity relationships of 3,5-diaryl-1H-pyrazoles as inhibitors of arylamine N-acetyltransferase” (Bioorg Med Chem Lett, 2013):
In brackets after ≈: the same amount, converted by molar mass.

Tested on: Mycobacterium tuberculosis
Assay: Antimycobacterial activity against Mycobacterium bovis BCG after 28 days
Assay type: functional
Conditions: variant bovis BCG, 672 h

Work on `COc1ccc(-c2cc(-c3cc(OC)ccc3O)[nH]n2)cc1` yielded an MIC of 34 µM (≈ 10.1 µg/mL).
